A short description of the data set: in vivo. To be noted: Sprague-Dawley, rat, po, 4 mg/kg.

By bioavailability is commonly meant the share of a dose that reaches the circulation, judged against a reference dose that is usually intravenous. As to `CC(C)(C#N)[C@H]1OC2(CCN(C(=O)[C@@H]3CN(C4CCOCC4)C[C@H]3c3ccc(F)cc3F)CC2)c2cc(F)c(Cl)cc21`, the bioavailability worked out at 23%. `CC(=O)NC(C)(C)[C@H]1OC2(CCN(C(=O)[C@@H]3CN(C4CCOCC4)C[C@H]3c3ccc(F)cc3F)CC2)c2cc(Cl)c(C)cc21`: the bioavailability was found to be 26%.

These data come from ChEMBL document CHEMBL1208763, “Discovery of potent, selective, and orally bioavailable 3H-spiro[isobenzofuran-1,4'-piperidine] based melanocortin subtype-4 receptor agonists” (Bioorg Med Chem Lett, 2010).
